Test results as given in US20240391940A1, “FUSED RING-CONTAINING COMPOUND, APPLICATION THEREOF, AND COMPOSITION CONTAINING SAME” (GenEros Biopharma Ltd., priority 2020, published 2024).
“And” between values parts separate entries of the source, which are not always exact repeats. Equal entries are not always repeated.

How the values were obtained:
[1] = tested on: IMQ-induced psoriasis mouse model; experiment: IMQ-induced psoriasis mouse model (PASI scoring); type: in vivo, Balb/c mice; parameters: key to skin thickening in psoriasis mice (score) / skin redness in psoriasis mice (score) / skin scaling in psoriasis mice (score): 0 = none to 4 = very severe, per sign; settings: 284-30 (30 mpk PO QD)
Experimental: Method: This experiment used a total of 19 mice. A natural skin observation control (n=1). 2 cm^2 of hair was shaved off the backs of […] on day 0, the stubble was removed with a mild depilatory cream, and the original skin was photographed. 62.5 mg of IMQ was applied to each of the mice. There was a mock group (n=6), a DEX (3 mg/kg, PO., qD) group (n=6), and a GEN1-284s (30 mg/kg, PO, qD) group (n=6). On the day of modeling, administration was performed in a volume of 100 μL/20 g body weight 4 h after IMQ application. The PASI scoring method was used to score the erythema, swelling and scaling on the skin of the mice. The experiment took a total of 6 days. The first day was set to day 0. IMQ application and administration were not performed on day 5. The mice were sacrificed with carbon dioxide at the end of the experiment.
The test animals were anesthetized with isoflurane. 2 cm^2 of hair was shaved off the backs of the mice, and the stubble was removed with a depilatory cream. IMQ application was performed for a total of 5 days, from day 0 to day 4. Scoring and IMQ application were performed every morning. Administration was performed in the afternoon
Desquamation (D): means epidermal cells flake off. The severity scores of skin lesions were as follows: • 0=none; this sign cannot be confirmed by careful observation • 1=mild; this sign can be confirmed but careful observation is required • 2=moderate; this sign is more visible and can be confirmed immediately • 3=severe; this sign is marked. • 4=very severe; this sign is very marked.
Induration I: 0—skin lesions are at the same level as normal skin; • 1—skin lesions are at slightly higher levels than normal skin surface; • 2—lesions moderately stick out and have round or slope-shaped borders; • 3—skin lesions are thick and markedly stick out; • 4—skin lesions are very thick and very markedly stick out.
Erythema E: • 0—no visible erythema; • 1—light red; • 2—red; • 3—dark red; • 4—the red is very dark

[2] = tested on: Apoe KO mouse atherosclerosis model; experiment: Atherosclerosis model: aortic plaque En-face staining and plaque area; type: in vivo, C57BL/6 Apoe KO mice; settings: HFD + 284-60 mpk, PO QD 8 W, individual mice; in % (unit assumed)
Experimental: (§1) Method: Apoe KO mice were tested for basal blood lipid levels and divided into a normal control group and a high-fat group. After 8 weeks of housing, the mice from the high-fat group were divided into 4 groups of about 8: a normal diet group (Chow), a high-fat diet model group (HFD), an Atorvastatin positive group (HFD+atorvastatin 5 mpk, QD), and a GEN1-284s group (284-60 mpk, QD). Oral administration was performed for 8 consecutive weeks, and the effect of the compound on the following indicators in Apoe KO mice was observed: 4 blood lipid tests (TC, TG, HDL-C and LDL-C), aortic plaque En-face staining, and pathological oil red staining of the cardiac outflow tract.
(§2) Mice from the groups except for the normal diet control group (Chow) were fed with high-fat feed every day for […]. From week 9, each group was orally administered solvent or a corresponding test compound, and body weight data were recorded every day for 8 consecutive weeks. After the first 8 weeks' high-fat diet, blood samples were taken and centrifuged to separate serum, and the serum was tested for blood lipid levels (TCHO, TG, LDL-C and HDL-C). The mice were randomly grouped according to the TCHO results and body weight. During the subsequent 8 weeks of administration, blood lipid tests (TCHO, TG, LDL-C and HDL-C) were run once every 4 weeks.
At the end of the experiment, the mice were euthanized by CO2 inhalation, and their hearts and aortas (from the aortic arch to the iliac artery) were isolated. The isolated artery was dissected longitudinally from the aortic arch to the iliac artery, fixed in 4% paraformaldehyde for 30 min, synchronized with 60% isopropanol for 10 min, then stained in 60% oil red for 30 min, and then washed with 60% isopropanol 3 times for 5 min each time. Finally, the stained aorta was washed with deionized water and photographed. The proportion of red plaque areas was measured using Image Pro Plus 6.0 (Media Cybernetics, MD, US).

[3] = tested on: Apoe KO mouse atherosclerosis model; experiment: Atherosclerosis model: plaques in the cardiac (left ventricular) outflow tract; type: in vivo, C57BL/6 Apoe KO mice; settings: HFD + 284-60 mpk, PO QD 8 W, individual mice; in %
Experimental: as §1, §2
Mouse heart samples were fixed overnight in 4% paraformaldehyde solution and dehydrated in sucrose solution. Then, the samples were embedded with OCT (Sakura, Japan) under a stereo microscope and made into 10 μm frozen sections. The sections were stained with oil red ORO and then subjected to routine pathological examinations. Images of the outflow tract were acquired under an optical microscope at 4× magnification, and high-quality morphological observations were carried out using an eyepiece with 20× magnification. The percentage of intimal lesions in the cardiac outflow tract was calculated. The detection criteria followed the criteria for histological classification of human atherosclerotic disease, which are described in detail below:
The area of plaques in the left ventricular outflow tract was measured using a microscope, and the proportion of plaques in the left ventricular outflow tract was calculated; this value reflects the degree of stenosis in the cardiac outflow tract vessel.

[4] = tested on: Apoe KO mouse atherosclerosis model; experiment: Atherosclerosis model (Apoe KO mice, high-fat diet): blood lipid tests TCHO, TG, LDL-C, HDL-C; type: in vivo, C57BL/6 Apoe KO mice; parameters: blood lipids (CHO) in Apo E−/− mice / blood lipids (TG) in Apo E−/− mice / blood lipids (HDL-C) in Apo E−/− mice / blood lipids (LDL-C) in Apo E−/− mice: unit not given here; settings: HFD + 284-60 mpk
Experimental: as §1, §2
Mice were fasted overnight, and blood (150 μL) was collected via mandibular blood sampling or eye ball removal (for endpoint only) and left at room temperature for 2 h. The blood was centrifuged at 4° C. at 7000 rpm for 10 min, and serum was pipetted, quick-frozen in dry ice and then stored at −80° C. before analysis. The serum was tested for the biochemical indicators TCHO, TG, LDL-C and HDL-C using kits and a microplate reader.

[5] = DAY 1, individual mice, 30 mg/kg
[6] = DAY 2, individual mice, 30 mg/kg
[7] = DAY 3, individual mice, 30 mg/kg
[8] = DAY 4, individual mice, 30 mg/kg
[9] = DAY 5, individual mice, 30 mg/kg

O=C(Cc1ccc2ncccc2c1)N1CCC(n2c(=O)n(COP(=O)(O)O)c3cccc(C(F)(F)F)c32)CC1 [Compound 284]
overall effect on the skin of psoriasis mice (score) ([1]; DAY 0, individual mice): 0 | skin redness in psoriasis mice (score) ([1]; DAY 0, individual mice): 0 | skin scaling in psoriasis mice (score) ([1]; DAY 0, individual mice): 0 | skin thickening in psoriasis mice (score) ([1]; DAY 0, individual mice): 0 | overall effect on the skin of psoriasis mice (score) [1, 5]: 1.667 and 1.167 and 1 and 2.333 and 2 and 0.6667 | skin redness in psoriasis mice (score) [1, 5]: 1 and 0.6667 and 0.8333 and 0.5 and 1.167 and 0 | skin scaling in psoriasis mice (score) [1, 5]: 0.1667 (3×) and 0 and 0.8333 and 0.3333 | skin thickening in psoriasis mice (score) [1, 5]: 0.5 (4×) and 0 and 1 | overall effect on the skin of psoriasis mice (score) [1, 6]: 1.5 (2×) and 2 and 1.333 and 2.333 (2×) | skin redness in psoriasis mice (score) [1, 6]: 0.8333 and 1 and 0.5 (2×) and 0.3333 and 0.1667 | skin scaling in psoriasis mice (score) [1, 6]: 0.1667 and 0.5 and 0.3333 and 0.8333 (2×) and 1 | skin thickening in psoriasis mice (score) [1, 6]: 0.5 (4×) and 1 (2×) | overall effect on the skin of psoriasis mice (score) [1, 7]: 3.333 (3×) and 2.333 and 2.5 and 2.167 | skin redness in psoriasis mice (score) [1, 7]: 1 (2×) and 0.8333 (2×) and 0.6667 and 0.5 | skin scaling in psoriasis mice (score) [1, 7]: 0.8333 and 0.5 and 1.833 and 0.6667 (2×) and 1.167 | skin thickening in psoriasis mice (score) [1, 7]: 1.5 (2×) and 1 (3×) and 0.5 | overall effect on the skin of psoriasis mice (score) [1, 8]: 2.667 and 3.667 (2×) and 2.833 (2×) and 3 | skin redness in psoriasis mice (score) [1, 8]: 1.333 and 1 (2×) and 0.6667 and 1.167 and 0.8333 | skin scaling in psoriasis mice (score) [1, 8]: 1.333 and 1.667 and 1.167 and 1 and 1.5 (2×) | skin thickening in psoriasis mice (score) [1, 8]: 0 and 1 (4×) and 0.5 | overall effect on the skin of psoriasis mice (score) [1, 9]: 3 (2×) and 2.667 and 4.333 and 3.5 (2×) | skin redness in psoriasis mice (score) [1, 9]: 1.5 and 0.6667 (3×) and 1 and 0.5 | skin scaling in psoriasis mice (score) [1, 9]: 1.5 and 1 and 2.333 and 1.333 and 1.833 and 2.5 | skin thickening in psoriasis mice (score) [1, 9]: 0 and 1 (4×) and 0.5 | atherosclerotic plaques in mice (proportion of arterial plaque area) [2]: 14.51 and 15.36 and 6.043 and 8.803 and 8.747 and 3.497 and 13.32 and 11.93 | plaques in the cardiac outflow tracts of mice (proportion of plaques in the left ventricular outflow tract) [3]: 3.172 and 8.444 and 8.652 and 1.278 and 0.625 and 2.394 and 7.368 | blood lipids (CHO) in Apo E−/− mice ([4]; Time 1, individual mice): 0.7986 and 0.8043 and 0.8562 and 0.7873 and 0.8278 and 1.372 and 1.184 | blood lipids (HDL-C) in Apo E−/− mice ([4]; Time 1, individual mice): 1.371 and 0.5315 and 1.057 and 0.9966 and 1.123 and 1.022 and 1.153 | blood lipids (LDL-C) in Apo E−/− mice ([4]; Time 1, individual mice): 0.6872 and 1.011 and 0.7654 and 0.5196 and 0.7151 and 1.05 and 1.587 | blood lipids (TG) in Apo E−/− mice ([4]; Time 1, individual mice): 0.4337 and 0.6308 and 0.6265 and 0.755 and 0.7465 and 0.995 and 1.031 | blood lipids (CHO) in Apo E−/− mice ([4]; Time 2, individual mice): 1.233 and 0.8693 and 1.165 and 0.9214 and 0.6106 and 1.043 and 0.9931 and 1.18 | blood lipids (HDL-C) in Apo E−/− mice ([4]; Time 2, individual mice): 2.122 and 0.9935 and 0.9789 and 1.033 and 0.8106 and 1.037 and 1.827 and 1.565 | blood lipids (LDL-C) in Apo E−/− mice ([4]; Time 2, individual mice): 1.374 and 0.6809 and 2.129 and 1.097 and 0.9183 and 1.393 and 1.144 and 0.9377 | blood lipids (TG) in Apo E−/− mice ([4]; Time 2, individual mice): 1.051 (2×) and 0.7809 and 1.131 and 1.303 and 1.009 and 1.451 and 1.117 | blood lipids (CHO) in Apo E−/− mice ([4]; Time 3, individual mice): 1.388 and 0.8444 and 1.354 and 0.78 and 1.427 and 1.407 and 1.241 and 1.477 | blood lipids (HDL-C) in Apo E−/− mice ([4]; Time 3, individual mice): 2.24 and 0.5362 and 0.9059 and 0.8576 and 1.163 and 1.018 (2×) and 1.067 | blood lipids (LDL-C) in Apo E−/− mice ([4]; Time 3, individual mice): 1.218 and 0.622 and 1.641 and 0.9017 and 1.494 and 1.215 and 2.628 and 1.406 | blood lipids (TG) in Apo E−/− mice ([4]; Time 3, individual mice): 0.8373 and 0.8015 and 1.448 and 0.7657 and 0.9226 and 1.222 and 1.943 and 1.2 | blood lipids (CHO) in Apo E−/− mice ([4]; Time 4, individual mice): 1.59 and 1.257 and 1.396 and 0.4939 and 0.5475 and 1.048 and 1.029 and 1.174 | blood lipids (HDL-C) in Apo E−/− mice ([4]; Time 4, individual mice): 1.04 and 0.5331 and 1.239 and 0.8199 and 0.5772 and 0.511 and 0.5552 and 1.57 | blood lipids (LDL-C) in Apo E−/− mice ([4]; Time 4, individual mice): 1.177 and 0.9355 and 0.8511 and 0.1725 and 0.4792 and 1.162 and 1.093 and 0.5061 | blood lipids (TG) in Apo E−/− mice ([4]; Time 4, individual mice): 1.059 and 0.6674 and 1.093 and 0.7289 and 1.028 and 0.7597 and 1.227 and 1.278
